Test results from US8889731B2, “Compounds, compositions and methods for repelling blood-feeding arthropods and deterring their landing and feeding” (Contech Enterprises Inc., priority 2007, dated 2014).

Legend:
Aedes aegypti = assay: Arm-in-cage repellent/deterrent bioassay on exposed human forearm (modified WHO protocol), Aedes aegypti; format: in vivo; conditions: for pest or weed control at 0.5 mg/cm2 / pest or weed control at 0.1 mg/cm2: Aedes aegypti, topical, (C-T)/C x 100 at time of failure, read-out: Percent repellence
Protocol: (§1) Candidate repellents and deterrents were bioassayed according to a modified protocol from the World Health Organization (1996). At least 1 hour prior to each bioassay, 75 host-seeking non blood-fed, nulliparous, 5- to 8-day-old female Aedes aegypti, Anopheles gambiae or Culex quinquefasciatus were placed into a wood-framed cage (26.5 cm on each side and 42.5 cm high) with a wooden floor, screened mesh sides and top, and a clear acrylic front fitted with a cotton stockinette sleeve (10 cm diameter). The test subject's arm was covered with an elbow-length polyethylene glove with an excised patch (16.6 cm long, 6 cm wide) to expose the ventral forearm of the test subject. Candidate deterrents were formulated in mineral (paraffin) oil and applied to the exposed forearm 5 min prior to inserting the arm into the cage. The inserted arm remained in the cage for 3 min every 30 min. Prior to each 3-min bioassay period, the hand of the untreated arm was inserted into the cage to ascertain that it received 10 bites within 30 sec as an indication of “biting pressure”.
(§2) The bioassay was terminated when the treated arm received ≧2 bites in one 3-min bioassay period or one bite in each of two consecutive bioassay periods. The time elapsed from experiment initiation to first bite was recorded as deterrent failure or complete protection time.
(§3) N,N-diethyl-m-toluamide formulated in ethanol at a corresponding dose served as a positive control, and mineral oil by itself served as a negative control. On each day, only one candidate compound was tested, ensuring that any residual material in the chamber had disappeared before the next bioassay.
To determine the repellence and deterrence of 8-allylsulfanyloctan-1-ol against Aedes aegypti, a 5%, 10% or 25% formulation of 8-allylsulfanyloctan-1-ol in mineral oil was applied in Experiments 1-3 at a dose of 1.5 mg (total composition) per cm^2 to the skin of the test person, and was bioassayed according to the protocol described under EXAMPLE 2. In Experiment 4, mineral oil by itself served as a negative control and was bioassayed at the same dose (1.5 mg per cm^2) as in Experiments 1-3. Each of Experiments 1-4 was replicated four times.
To compare the repellence and deterrence against Aedes aegypti caused by 8-allylsulfanyloctan-1-ol as a single active ingredient and by 8-allylsulfanyloctan-1-ol in combination with vanillin as a second active ingredient, we tested a 6.7% emulsion of vanillin (Experiment 14), a 6.7% emulsion of 8-allylsulfanyloctan-1-ol (Experiment 15), and a 13.4% emulsion of 8-allylsulfanyloctan-1-ol plus vanillin (1:1 ratio) (Experiment 16). 8-Allylsulfanyloctan-1-ol and vanillin were formulated in Emulsion No. 1 (see EXAMPLE 9). In each of Experiments […], test stimuli were applied at a dose of 1.5 mg per cm^2 to the skin of the test person, and were bioassayed according to the protocol described under EXAMPLE 2. In Experiment 17, Emulsion No. 1 served as a positive control and was tested at the same dose (1.5 mg per cm^2) as in Experiments 14-16.
To be able to compare the repellence and deterrence caused by N,N-diethyl-m-toluamide and by 8-allylsulfanyloctan-1-ol plus vanillin in Emulsion No. 1 (EXAMPLE 9), Experiment 26 tested a 6.7% formulation of N,N-diethyl-m-toluamide in ethanol (the best formulant for DEET) for protection from bites by Aedes egypti. In each replicate, a dose of 1.5 mg per […] was applied to the skin of the test person and bioassayed according to the protocol described under EXAMPLE 2.
To be able to further compare the deterrence caused by N,N-diethyl-m-toluamide with that caused by 8-allylsulfanyloctan-1-ol plus vanillin, Experiment 27 tested a 10.4% formulation of N,N-diethyl-m-toluamide in ethanol, and Experiment 28 tested 8-allylsulfanyloctan-1-ol (10.4%) plus vanillin (7.9%) in Emulsion No. 2 (EXAMPLE 10). […]

[1] = test system: male or female Aedes aegypti antennae; assay: Coupled gas chromatographic-electroantennographic detection (GC-EAD) of garlic oil extract
Protocol: FIG. 1 illustrates flame ionization detector (FID) and electroantennograhic detector (EAD: male or female Aedes aegypti antennae) responses to aliquots of the low boiling temperature portion of garlic oil extract. Chromatography: Hewlett Packard (HP) gas chromatograph equipped with a fused silica column (30 m×0.32 mm ID) coated with DB-5; injector and detector temperature: 250° C.; temperature program: 50° C.
Aliquots of garlic oil extracts were then subjected to coupled gas chromatographic-electroantennographic detection (GC-EAD) analysis. Fourteen components (10 shown in FIG. 1) elicited responses from female or male mosquito antennae. Some of these components were isolated by high-performance liquid chromatography (HPLC) for identification by nuclear magnetic resonance spectroscopy (NMR). Other components were identified (compounds 11-14 in TABLE 2) by coupled GC-mass spectrometry and by retention index calculations. […] Four of the 10 components in FIG. 1 were tentatively identified by comparing their mass spectra and retention indices with those reported in the literature (Block et al. 1998).
(§4) Components with high molecular weight (>250 daltons) are advantageous in that they: 1) dissipate slowly from treated surfaces; 2) provide long-lasting protection against mosquitoes and 3) convey little, if any, offensive smell. The relative abundance of such components was enhanced by treating garlic oil under vacuum, thus stripping away lower-boiling components. In GC-EAD analyses of the high-boiling residue, four components elicited responses from mosquito antennae.

mosquitoes = assay: General bioassay procedure with garlic oil, its components and fractions (mosquito species not given); format: in vivo
Protocol: as §1, §2, §3
Garlic oil (Allium sativum—Mexico; Clearwater Soap Works, Box 1775 RR1, Clearwater, BC V0E 1N0, Canada) was formulated in mineral oil and tested using the general bioassay procedure described in EXAMPLE 2 at a dose of 0.1 mg per cm^2 of arm surface. It expressed repellence and deterrence for ˜30 min.
Some of the 10 components in FIG. 1 were bioassayed singly (see general bioassay procedure) and in various combinations, all of which were as deterrent to mosquitoes as garlic oil.
To determine the most deterrent component(s) in garlic oil, it was fractionated by HPLC into four fractions, each containing one or more of the EAD-active components (compounds 1-10 in FIG. 1 and 11-14 in TABLE 2). Each fraction was then bioassayed and shown to be similarly effective in repelling and deterring mosquitoes.
as §4

Anopheles gambiae = assay: Arm-in-cage repellent/deterrent bioassay on exposed human forearm (modified WHO protocol), Anopheles gambiae; format: in vivo
Protocol: as §1, §2, §3
(§5) To determine the repellence and deterrence of 8-allylsulfanyloctan-1-ol against Anopheles gambiae, a 2%, 5% or a 10% formulation of 8-allylsulfanyloctan-1-ol in mineral oil was applied in Experiments 5-7 at a dose of 1.5 mg per cm^2 to the skin of the test person, and was bioassayed according to the protocol described under EXAMPLE 2. In Experiment 8, mineral oil by itself served as a negative control and was tested at the same dose (1.5 mg per cm^2) as in Experiments 5-7. Each of Experiments 5-8 was replicated 4 times.
To be able to compare the repellence and deterrence caused N,N-diethyl-m-toluamide (DEET), and by 8-allylsulfanyloctan-1-ol, Experiment 13 tested a 2% formulation of N,N-diethyl-m-toluamide in ethanol (the best formulant for this compound) for protection from bites by Anopheles gambiae. A dose of 1.5 mg per cm^2 was applied to the skin of the test person and bioassayed according to the protocol described under EXAMPLE 2.
To compare the repellence and deterrence against Anopheles gambiae caused by 8-allyl-sulfanyloctan-1-ol as a single active ingredient and by 8-allylsulfanyloctan-1-ol in combination with vanillin as a second active ingredient, we tested a 6.7% emulsion of vanillin (Experiment 18), a 6.7-% emulsion of 8-allylsulfanyl-octan-1-ol (Experiment 19) and a 13.4% emulsion of 8-allylsulfanyloctan-1-ol plus vanillin (1:1 ratio) (Experiment 20). 8-Allylsulfanyloctan-1-ol and vanillin were formulated in Emulsion No. 1 (see EXAMPLE 9). In each of Experiments 18-20, test stimuli were applied at a dose of 1.5 mg per cm^2 to the skin of the test person, and were bioassayed according to the protocol described under EXAMPLE 2. In Experiment 21, Emulsion No. 1 served as a positive control and was tested at the same dose (1.5 mg per cm^2) as in experiments 18-20. Each of Experiments 18-21 was replicated three times.

Culex quinquefasciatus = assay: Arm-in-cage repellent/deterrent bioassay on exposed human forearm (modified WHO protocol), Culex quinquefasciatus; format: in vivo; conditions: 6.7% single active in Emulsion No. 1 (FIG. 9 legend: 2.0%), 1.5 mg per cm^2, Experiments 22, 23
Protocol: as §1, §2, §3
as §5, with “Culex quinquefasciatus,” for “Anopheles gambiae,”, “2% and” for “2%,”, “9-11” for “5-7”, “12,” for “8,”, “[…].” for “5-7.”, “9-11” for “5-8”
To compare the repellence and deterrence against Culex quinquefasciatus caused by 8-allylsulfanyloctan-1-ol as a single active ingredient and by 8-allylsulfanyloctan-1-ol in combination with vanillin as a second active ingredient, we tested a 6.7% emulsion of vanillin (Experiment 22), a 6.7% emulsion of 8-allylsulfanyloctan-1-ol (Experiment 23) and a 13.4% emulsion of 8-allylsulfanyloctan-1-ol plus vanillin (1:1 ratio) (Experiment 24). 8-Allylsulfanyloctan-1-ol and vanillin were formulated in Emulsion No. 1 (see EXAMPLE 9). In each of Experiments […], test stimuli were applied at a dose of 1.5 mg per cm^2 to the skin of the test person, and were bioassayed according to the protocol described under EXAMPLE 2. In Experiment 25, Emulsion No. 1 served as a positive control and was tested at the same dose (1.5 mg per cm^2) as in Experiments 22-24. Each of Experiments 22-25 was replicated three times.

[2] = Dosage 0.1 mg/cm^2, 0 = immediate failure

Structure (SMILES) | pest or weed control at 0.5 mg/cm2 (Aedes aegypti; Dosage 0.5 mg/cm^2) | Failure time (Aedes aegypti; Dosage 0.5 mg/cm^2) | pest or weed control at 0.1 mg/cm2 (Aedes aegypti; Dosage 0.1 mg/cm^2) | Failure time (Aedes aegypti; [2]) | further results
C=CCSCCCCCCSCC=C [Compound 18, 4,11-dithiatetradeca-1,13-diene] | 93% | 67 min | – | – | –
C=CCSSCC1CC=CSC1 (centres unmarked) [Compound 14, 3-(2,3-dithia-5-hexenyl)-3,4-dihydro-2(H)-thiopyran] | – | – | – | – | electroantennographic (EAD) response of mosquito antennae [1]: Antennal stimulatory; repellent and deterrent effect in bioassays (in words) (mosquitoes): strong repellent and deterrent effect
C=CCSCCCCCCC(C)O (centres unmarked) [Compound 23, 8-allylsulfanyloctan-2-ol] | – | – | – | – | Failure time (Aedes aegypti; Dosage 0.05 mg/cm^2): 99 min
C=CCOCCCCCCCCCCOCC=C [Compound 20, 1,10-bis-allyloxy-decane] | – | – | 81% | 0 min | had any repellence or deterrence in bioassays (Aedes aegypti; see TABLE 2, 0.1 mg/cm^2): neither
C=CCSSc1ccccc1SSCC=C [Compound 15, 1,2-bis-(1,2-dithia-4-pentenyl)-benzene] | – | – | 92% | 34 min | –
CCN(CC)C(=O)c1cccc(C)c1 [N,N-diethyl-m-toluamide, reference compound] | – | – | – | – | duration of protection relative to 2% 8-allylsulfanyloctan-1-ol (297 min) (Anopheles gambiae; 2% DEET in ethanol vs 2% 8-allylsulfanyloctan-1-ol in mineral oil): one sixth; protection from bites, average duration (Anopheles gambiae; 2% formulation in ethanol, 1.5 mg per cm^2, Experiment 13): 66 min; protection from bites, average duration (Aedes aegypti; 6.7% formulation in ethanol, 1.5 mg per cm^2, Experiment 26): 197 min; protection from bites, average duration (Aedes aegypti; 10.4% formulation in ethanol, 1.5 mg per cm^2, Experiment 27): 231 min
COc1cc(C=O)ccc1O [vanillin] | – | – | – | – | protection from bites, average duration (Anopheles gambiae; 6.7% single active in Emulsion No. 1 (FIG. 8 legend: 2.0%), 1.5 mg per cm^2, Experiments 18, 19): 110 min; protection from bites, average duration (Culex quinquefasciatus): 88 min; protection from bites, average duration (Aedes aegypti; 6.7% single active in Emulsion No. 1, 1.5 mg per cm^2, Experiments 14, 15): 44 min
C=CCSSC/C=C/c1ccccc1 [Compound 16, (E)-4,5-dithia-1,7-octadien-1-yl-benzene] | 92% | 36 min | 89% | 35 min | –
C=CCSSCC(C)SSCC=C (centres unmarked) [Compound 12, 6-methyl-4,5,8,9-tetrathiadodeca-1,11-diene] | 97% | 102 min | 87% | 0 min | electroantennographic (EAD) response of mosquito antennae [1]: Antennal stimulatory; repellent and deterrent effect in bioassays (in words) (mosquitoes): strong repellent and deterrent effect
C=CCSCCCCCCCCCO [Compound 22, 9-allylsulfanylnonan-1-ol] | – | – | – | – | Failure time (Aedes aegypti; Dosage 0.05 mg/cm^2): 33 min
C=CCSSCC1CCC=CS1 (centres unmarked) [Compound 13, 2-(2,3-dithia-5-hexenyl)-3,4-dihydro-2(H)-thiopyran] | – | – | – | – | electroantennographic (EAD) response of mosquito antennae [1]: Antennal stimulatory; repellent and deterrent effect in bioassays (in words) (mosquitoes): strong repellent and deterrent effect
C=CCSCCCSCC=C [Compound 17, 4,8-dithiaundeca-1,10-diene] | 97% | 36 min | 89% | 0 min | –
C=CCSCCCCCCCCSCC=C [Compound 19, 4,13-dithiahexadeca-1,15-diene] | 97% | 102 min | 93% | 0 min | –
